Here are results for three compounds from patent US10729723B2, “Method for inducing cell reprogramming, and method for producing pluripotent cells” (NATIONAL UNIVERSITY CORPORATION KUMAMOTO UNIVERSITY, priority 2014, dated 2020).

For series [1], the system named is HDF cells. The series is described as follows: influence of endocytosis inhibitor on cell-cluster formation by Lactobacillus 70S ribosome fraction. In kind it is cell-based, Human. The note with it: 70S ribosome fraction 0.5 μg/50 μl/well, HDF cells 20,000 cells, cultured 2 days. As to the method: (§1) In the presence of an endocytosis inhibitor shown in the following Table, the cell-cluster forming ability was examined using the Lactobacillus 70S ribosome fraction prepared in Example 6. The 70S ribosome fraction was placed into a 96-well plate (0.5 μg/50 μl/well), HDF cells (20,000 cells/100 μl) were added, and each inhibitor (50 μl) was added. The cells were cultured in a CO2 incubator for 2 days, and the number of the formed cell-clusters was measured. The inhibitor was used with the concentration shown in Table being the standard concentration (concentration “5” in FIG. 9). Accordingly, for example, in the case of CP, the concentration “5” is 10 μM, and the concentration “10” is 20 μM. In addition, the MTT assay (measurement of cell death by colorimetric method) was conducted.

The subject of series [2] is HDF cells. The series is described as follows: MTT assay (measurement of cell death by colorimetric method). The format is cell-based. The note with it: HDF cells with 70S ribosome fraction, 2 days. The method, then:
as §1

As for `CN(C)CCCN1c2ccccc2Sc2ccc(Cl)cc21` [CP, Chlorpromazine], the “number of the formed cell-clusters in the presence of inhibitor” value in series [1] was “decreased”. On the same count and under the same terms, then Methyl-β-cyclodextrin [MC], with “increased concentration-dependently”.

For the compound `C[C@@H]1[C@H](O)[C@@H](C)/C=C/C=C/CC/C=C/C=C/C=C/C=C/C(O[C@H]2O[C@H](C)[C@@H](O)[C@H](N)[C@@H]2O)CC2O[C@](O)(CC(O)C(O)CCC(O)CC(O)CC(O)CC(=O)O[C@H]1C)CC(O)C2C(=O)O` (stereo partly shown) [NY, Nystatin], in series [1], the “number of the formed cell-clusters in the presence of inhibitor” value is listed as “decreased”. The “toxicity of inhibitor, considered cause of decreased cell-cluster number (MTT assay, cell survival ratio)” value in series [2] is recorded as “toxicity”.
